Source: patent US10233195B2, “Anti-fibrotic pyridinones” (InterMune, Inc., priority 2014, dated 2019)

Tested on: TGF-b induced Endothelin-1 production
Test: ET-1 assay: inhibitory effect on TGF-b induced endothelin-1 production
Assay type: cell-based
Settings: Homo sapiens, Fibroblast; fibroblasts, stimulant (TGFb, serum, LPA etc), ET-1 in media by ELISA, 4-parameter fit
Procedure: Assay of Inhibitory Effect on TGF-b Induced Endothelin-1 Production
Fibroblasts (primary human lung and dermal, HFL-1, 3T3 etc) are seeded in 96-well plates at ˜15000 cells/well and serum starved for 0-48 hours. After media exchange, compounds serially diluted in DMSO are added to the cells. After a brief incubation of ˜30 min, stimulants (TGFb, serum, LPA etc) are added followed by further incubation for 16-48 hours. Media is then harvested and stored frozen in plate format for later endothelin-1 (ET-1) determination by ELISA. Toxicity measurements are made using the ATPlite kit (Perkin-Elmer). ET-1 is quantified using an ELISA kit (R&D Systems). The amount of ET-1 produced in the assay wells are back-calculated using the ELISA standard. The ability of a compound to inhibit ET-1 production is typically analyzed by fitting dose-response curves to a 4-parameter logistic function to obtain an EC50 value. A measure of cytotoxicity (CC50) is likewise reported from the same experiment using the ATPlite data.
Compounds of some embodiments were prepared according to synthetic methods described herein and assay data obtained for EC50 against ET-1. The assay data obtained is presented in Table 2, in which A=less than 50 μM, B=greater than or equal to 50 μM and less than or equal to 200 μM; and C=greater than 200 μM.

Row | Structure (SMILES) | EC50 [µM]
1 | CC(=O)c1ccc(=O)n(-c2cccc(C(F)(F)F)c2)c1 [Compound 11] | > 200
2 | CC(=O)c1ccc(=O)n(-c2ccc(Cl)cc2)c1 [Compound 12] | > 200
3 | COc1cccc(-n2cc(C(C)=O)ccc2=O)c1 [Compound 14] | > 200
4 | CC(=O)c1ccc(=O)n(-c2cccc(F)c2)c1 [Compound 15] | > 200
5 | CC(=O)Nc1cccc(-n2cc(C(C)=O)ccc2=O)c1 [Compound 18] | > 200
6 | CC(=O)c1ccc(=O)n(-c2ccccc2Cl)c1 [Compound 19] | 50 to 200
7 | COCCOc1ccc(-n2cc(-c3ccc(F)cc3)c(C)cc2=O)cc1 [Compound 23] | 50 to 200
8 | COCCOc1ccc(-n2cc(-c3cn[nH]c3)c(C)cc2=O)cc1 [Compound 24] | > 200
9 | COCCOc1ccc(-n2cc(-c3cnn(C)c3)c(C)cc2=O)cc1 [Compound 25] | > 200
10 | COCCOc1ccc(-n2cc(-c3ccccc3)c(C)cc2=O)cc1 [Compound 26] | < 50
11 | O=c1ccc2c(n1-c1ccccc1)CCC2 [Compound 27] | > 200
12 | O=c1c2c(c(-c3ccc(F)cc3)cn1-c1ccc(OC(F)(F)F)cc1)CCCC2 [Compound 32] | > 200
13 | Cn1cc(-c2cn(-c3ccc(OC(F)(F)F)cc3)c(=O)c3c2CCCC3)cn1 [Compound 33] | < 50
14 | O=c1c2c(c(-c3cccc(F)c3)cn1-c1ccc(OC(F)(F)F)cc1)CCCC2 [Compound 34] | < 50
15 | CCOc1ccc(-n2cc(-c3cnn(C)c3)c3c(c2=O)CCCC3)c(C)c1 [Compound 35] | < 50
16 | CCOc1ccc(-n2cc(-c3cn[nH]c3)c3c(c2=O)CCCC3)c(C)c1 [Compound 36] | < 50
17 | O=c1c2c(c(-c3cn[nH]c3)cn1-c1ccc(OC(F)(F)F)cc1)CCCC2 [Compound 37] | 50 to 200
18 | O=c1c2ccc(C(F)(F)F)nc2c(-c2ccc(F)cc2)cn1-c1ccc(OC(F)(F)F)cc1 [Compound 38] | > 200
19 | Cn1cc(-c2cn(-c3ccc(OC(F)(F)F)cc3)c(=O)c3ccc(C(F)(F)F)nc23)cn1 [Compound 39] | < 50

Row | Structure (SMILES) | EC50 [µM]
20 | O=c1c2nsnc2c(-c2ccc(F)cc2)cn1-c1ccc(OC(F)(F)F)cc1 [Compound 40] | > 200
21 | O=c1c2cccnc2c(-c2ccc(F)cc2)cn1-c1ccc(OC(F)(F)F)cc1 [Compound 42] | > 200
22 | Cn1cc(-c2cn(-c3ccc(OC(F)(F)F)cc3)c(=O)c3c2NCCC3)cn1 [Compound 44] | > 200
23 | O=c1c2c(c(-c3ccc(F)cc3)cn1-c1ccc(OC(F)(F)F)cc1)NCCC2 [Compound 45] | > 200
24 | O=c1c2ncn(Cc3ccccc3)c2c(-c2ccc(F)cc2)cn1-c1ccc(OC(F)(F)F)cc1 [Compound 54] | > 200
25 | Cn1cc(-c2cn(-c3ccc(OC(F)(F)F)cc3)c(=O)c3ncn(Cc4ccccc4)c23)cn1 [Compound 55] | > 200
26 | O=c1c2nc[nH]c2c(-c2ccc(F)cc2)cn1-c1ccc(OC(F)(F)F)cc1 [Compound 56] | > 200
27 | Cn1cc(-c2cn(-c3ccc(OC(F)(F)F)cc3)c(=O)c3nc[nH]c23)cn1 [Compound 57] | > 200
28 | CCOc1ccc(-n2cc(-c3ccc(F)cc3)c3nccnc3c2=O)c(C)c1 [Compound 62] | > 200
29 | O=c1ccc(C2CCCC2)cn1-c1ccccc1 [Compound 64] | 50 to 200
30 | O=c1ccc(C2CCC2)cn1-c1ccccc1 [Compound 65] | > 200
31 | O=c1ccc(C2CCCCC2)cn1-c1ccccc1 [Compound 66] | 50 to 200
32 | CC(=O)n1cc(-c2ccc(=O)n(-c3ccccc3)c2)cn1 [Compound 67] | > 200
33 | CCCCOC(=O)n1cc(-c2ccc(=O)n(-c3ccccc3)c2)cn1 [Compound 74] | 50 to 200
34 | O=c1ccc(-c2ccc(F)cc2)cn1CCc1ccccc1 [Compound 77] | 50 to 200
35 | Cc1ccc(=O)n(Cc2ccccc2)c1 [Compound 78] | > 200
36 | O=c1ccc(-c2ccc(F)cc2)cn1Cc1ccccc1 [Compound 79] | < 50
37 | O=C1Cc2ccccc2N1c1ccc(OC(F)(F)F)cc1 [Compound 81] | 50 to 200
